# According to ChEMBL document CHEMBL4673363, “Highly potent, broadly active antifungal agents for the treatment of invasive fungal infections” (Bioorg Med Chem Lett, 2021):
# Experiments:
# Rhizopus = test: Antifungal activity against Rhizopus assessed as inhibition of fungal growth by broth dilution assay; assay type: functional, organism-based
# Candida [1] = test: Antifungal activity against Candida assessed as inhibition of fungal growth by broth dilution assay; assay type: functional, organism-based
# Aspergillus = test: Antifungal activity against Aspergillus assessed as inhibition of fungal growth by broth dilution assay; assay type: functional, organism-based
# [2] = Antifungal activity against Mucor ramosissimus ATCC 90286; assay type: functional
# Mucor circinelloides = test: Antifungal activity against Mucor circinelloides ATCC 26579; assay type: functional
# Fusarium solani = test: Antifungal activity against Fusarium solani ATCC 58877; assay type: functional
# Aspergillus fumigatus = test: Antifungal activity against Aspergillus fumigatus ATCC 3626; assay type: functional
# Aspergillus flavus = test: Antifungal activity against Aspergillus flavus ATCC 3631; assay type: functional
# [3] = Antifungal activity against Fusarium falciforme ATCC 3636; assay type: functional
# Trichophyton = test: Antifungal activity against Trichophyton after 48 hrs by CLSI-based broth microdilution method; assay type: functional
# Candida [4] = test: Antifungal activity against Candida after 48 hrs by CLSI-based broth microdilution method; assay type: functional
# [5] = Aqueous solubility of compound at pH 7.4; assay type: physicochemical
# [6] = Solubility in 10% 2-hydroxypropyl-B-cyclodextrin; assay type: physicochemical
# hERG (KCNH2) = hERG (KCNH2) (Homo sapiens, UniProt Q12809); test: Inhibition of human ERG at 10 uM by Qpatch method relative to control
# CYP3A = test: Inhibition of CYP3A in human liver microsomes at 10 uM using testosterone as substrate measured for 10 to 30 mins in presence of NADPH by LC-MS/MS analysis relative to control; assay type: ADME; conditions: probe testosterone, time 10-30 min
# CYP2C19 = CYP2C19 (Homo sapiens, UniProt P33261); test: Inhibition of CYP2C19 in human liver microsomes at 10 uM using S-mephenytoin as substrate measured for 10 to 30 mins in presence of NADPH by LC-MS/MS analysis relative to control; assay type: ADME; conditions: probe S-mephenytoin, time 10-30 min
# [7] = Protein binding in mouse plasma at 1 uM measured after 4 hrs by LC-MS/MS based rapid equilibrium dialysis method; assay type: ADME, cell-free; conditions: read-out: PPB (converted)
# CYP1A2 = biological target: T1, CYP1A2 (Homo sapiens, UniProt P05177); test: Inhibition of CYP1A2 in human liver microsomes at 10 uM using phenacetin as substrate measured for 10 to 30 mins in presence of NADPH by LC-MS/MS analysis relative to control; assay type: ADME; conditions: probe phenacetin, time 10-30 min
# T1 sequence (P05177 whole entry): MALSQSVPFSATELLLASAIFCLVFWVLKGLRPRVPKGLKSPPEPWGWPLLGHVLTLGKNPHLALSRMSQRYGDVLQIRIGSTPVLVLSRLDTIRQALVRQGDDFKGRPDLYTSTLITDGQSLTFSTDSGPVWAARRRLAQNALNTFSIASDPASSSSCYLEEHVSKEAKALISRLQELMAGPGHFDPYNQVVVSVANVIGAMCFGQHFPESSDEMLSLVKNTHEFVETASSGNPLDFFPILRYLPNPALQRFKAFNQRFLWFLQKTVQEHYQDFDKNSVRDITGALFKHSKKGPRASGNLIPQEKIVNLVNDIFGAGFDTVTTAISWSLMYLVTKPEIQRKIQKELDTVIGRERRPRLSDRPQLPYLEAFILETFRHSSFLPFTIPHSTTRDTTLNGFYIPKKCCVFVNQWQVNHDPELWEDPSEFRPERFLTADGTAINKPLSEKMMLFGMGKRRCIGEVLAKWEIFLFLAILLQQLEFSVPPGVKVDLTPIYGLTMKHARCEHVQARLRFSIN
# [8] = Metabolic stability in mouse liver microsomes assessed as half life measured up to 60 mins in presence of NADPH by LC-MS/MS analysis; assay type: ADME, Microsome
# [9] = Selectivity index, ratio of CC50 for human HepG2 cells to MIC for candida albicans; assay type: toxicity; conditions: read-out: Selectivity Index
# [10] = Cytotoxicity against mouse 3T3 cells assessed as reduction in metabolic activity measured after 24 hrs; assay type: ADME, cell-based
# [11] = Selectivity index, ratio of CC50 for mouse 3T3 cells to MIC for candida albicans; assay type: toxicity; conditions: read-out: Selectivity Index
# [12] = Cytotoxicity against human HepG2 cells assessed as reduction in metabolic activity measured after 24 hrs; assay type: ADME, cell-based
# Candida albicans = test: Antifungal activity against Candida albicans clinical isolate; assay type: functional
# Chain of hERG (KCNH2) (Q12809 whole entry): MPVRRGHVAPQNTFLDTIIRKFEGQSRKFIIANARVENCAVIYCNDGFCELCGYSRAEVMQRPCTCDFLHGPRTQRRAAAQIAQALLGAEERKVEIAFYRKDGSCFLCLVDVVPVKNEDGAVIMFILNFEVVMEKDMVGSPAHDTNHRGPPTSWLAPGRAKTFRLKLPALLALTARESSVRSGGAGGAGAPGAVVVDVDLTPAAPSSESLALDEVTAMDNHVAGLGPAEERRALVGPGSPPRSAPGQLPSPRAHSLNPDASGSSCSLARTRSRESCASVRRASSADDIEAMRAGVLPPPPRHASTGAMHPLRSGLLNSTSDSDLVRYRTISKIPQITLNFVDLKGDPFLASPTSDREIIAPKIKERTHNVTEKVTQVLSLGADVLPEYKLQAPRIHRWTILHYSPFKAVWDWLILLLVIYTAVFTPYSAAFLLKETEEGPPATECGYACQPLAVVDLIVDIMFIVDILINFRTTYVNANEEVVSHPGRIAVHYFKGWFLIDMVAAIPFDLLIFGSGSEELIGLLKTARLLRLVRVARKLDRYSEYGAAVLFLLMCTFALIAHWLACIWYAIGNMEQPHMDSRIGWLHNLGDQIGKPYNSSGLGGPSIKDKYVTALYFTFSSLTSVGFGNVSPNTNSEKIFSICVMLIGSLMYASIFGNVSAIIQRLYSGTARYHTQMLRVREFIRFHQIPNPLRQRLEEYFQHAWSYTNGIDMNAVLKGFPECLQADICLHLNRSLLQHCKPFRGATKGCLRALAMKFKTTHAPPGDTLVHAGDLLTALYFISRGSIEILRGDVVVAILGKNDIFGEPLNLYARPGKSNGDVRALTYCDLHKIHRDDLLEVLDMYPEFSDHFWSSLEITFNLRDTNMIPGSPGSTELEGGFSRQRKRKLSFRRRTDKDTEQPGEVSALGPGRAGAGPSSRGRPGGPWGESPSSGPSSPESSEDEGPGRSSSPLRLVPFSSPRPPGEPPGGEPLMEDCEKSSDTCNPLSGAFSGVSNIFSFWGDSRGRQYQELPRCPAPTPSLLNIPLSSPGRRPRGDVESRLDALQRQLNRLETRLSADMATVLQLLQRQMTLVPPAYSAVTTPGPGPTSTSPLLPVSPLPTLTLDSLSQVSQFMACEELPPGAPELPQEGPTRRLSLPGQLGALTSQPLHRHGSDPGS
# Chain of CYP2C19 (P33261 whole entry): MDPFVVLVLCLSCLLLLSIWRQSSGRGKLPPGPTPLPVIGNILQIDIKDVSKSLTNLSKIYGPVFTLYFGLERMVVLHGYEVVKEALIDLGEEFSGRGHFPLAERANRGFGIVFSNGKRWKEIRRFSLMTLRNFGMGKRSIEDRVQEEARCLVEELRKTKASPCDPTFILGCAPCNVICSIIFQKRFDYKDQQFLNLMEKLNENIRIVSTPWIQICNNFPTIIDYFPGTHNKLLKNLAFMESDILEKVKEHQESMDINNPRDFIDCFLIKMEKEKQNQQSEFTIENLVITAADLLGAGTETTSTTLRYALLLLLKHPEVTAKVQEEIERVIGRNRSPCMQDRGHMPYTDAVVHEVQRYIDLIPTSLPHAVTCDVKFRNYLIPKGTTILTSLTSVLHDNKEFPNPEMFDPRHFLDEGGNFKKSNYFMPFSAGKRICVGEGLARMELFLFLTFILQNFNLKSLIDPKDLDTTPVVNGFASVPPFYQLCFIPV
smiles,measurement,setting,value
NC(N)=N/N=C/c1ccc(OCc2ccc(Cl)c(Cl)c2)cc1,IC50,Rhizopus,> 12 µM
same,IC50,Candida [1],> 12 µM
same,IC50,Aspergillus,> 12 µM
Cn1c(-c2ccc(N3CCN(C(=N)N)CC3)cc2)nnc1-c1ccc(N2CCN(C(=N)N)CC2)cc1,MIC,[2],> 100 µg/mL
same,MIC,Mucor circinelloides,> 100 µg/mL
same,MIC,Fusarium solani,1.56 µg/mL
same,MIC,Aspergillus fumigatus,0.39 µg/mL
same,MIC,Aspergillus flavus,0.78 µg/mL
same,MIC,[3],0.39 µg/mL
CC(C)(C)c1cc(C(C)(C)C)c2[nH]c(C(C)(C)C)c(C[C@H](NC(=O)[C@@H](N)CCCNC(=N)N)C(=O)N[C@@H](CCCNC(=N)N)C(=O)NCCc3ccccc3)c2c1 [LTX-109],MIC,Trichophyton,8 µg/mL
same,MIC,Candida [4],4 µg/mL
N=C(N)N1CC=C(c2ccc(-c3nnc(-c4ccc(C5=CCN(C(=N)N)CC5)cc4)n3C3CCCCC3)cc2)CC1,MIC,[2],1.56 µg/mL
same,MIC,Mucor circinelloides,0.39 µg/mL
same,MIC,Fusarium solani,0.39 µg/mL
same,MIC,Aspergillus fumigatus,0.39 µg/mL
same,MIC,Aspergillus flavus,0.78 µg/mL
same,MIC,[3],0.2 µg/mL
Cc1cc(-c2nnc(-c3ccc(C4=CCN(C(=N)N)CC4)c(C)c3)n2C)ccc1C1=CCN(C(=N)N)CC1,MIC,[2],50 µg/mL
same,MIC,Mucor circinelloides,6.25 µg/mL
same,MIC,Fusarium solani,0.78 µg/mL
same,MIC,Aspergillus fumigatus,0.78 µg/mL
same,MIC,Aspergillus flavus,1.56 µg/mL
same,MIC,[3],0.78 µg/mL
Cc1cc(C2=CCN(C(=N)N)CC2)ccc1-c1nnc(-c2ccc(C3=CCN(C(=N)N)CC3)cc2)o1,MIC,[2],25 µg/mL
same,MIC,Mucor circinelloides,12.5 µg/mL
same,MIC,Fusarium solani,0.78 µg/mL
same,MIC,Aspergillus fumigatus,0.78 µg/mL
same,MIC,Aspergillus flavus,0.31 µg/mL
same,MIC,[3],0.2 µg/mL
Cc1cc(C2=CCN(C(=N)N)CC2)ccc1-c1nnc(-c2ccc(C3=CCN(C(=N)N)CC3)cc2)n1C,MIC,[2],6.25 µg/mL
same,MIC,Mucor circinelloides,3.13 µg/mL
same,MIC,Fusarium solani,0.2 µg/mL
same,MIC,Aspergillus fumigatus,0.2 µg/mL
same,MIC,Aspergillus flavus,0.39 µg/mL
same,MIC,[3],0.2 µg/mL
N=C(N)N1CC=C(c2ccc(-c3nnc(-c4ccc(C5=CCN(C(=N)N)CC5)cc4)o3)cc2)CC1,MIC,[2],100 µg/mL
same,MIC,Mucor circinelloides,100 µg/mL
same,MIC,Fusarium solani,6.25 µg/mL
same,MIC,Aspergillus fumigatus,3.13 µg/mL
same,MIC,Aspergillus flavus,3.13 µg/mL
same,MIC,[3],0.39 µg/mL
Cc1cc(C2=CCN(C(=N)N)CC2)ccc1-c1nnc(-c2ccc(C3=CCN(C(=N)N)CC3)cc2C)n1C,MIC,[2],6.25 µg/mL
same,MIC,Mucor circinelloides,1.56 µg/mL
same,MIC,Fusarium solani,0.2 µg/mL
same,MIC,Aspergillus fumigatus,0.78 µg/mL
same,MIC,Aspergillus flavus,0.39 µg/mL
same,MIC,[3],0.78 µg/mL
Cn1c(-c2ccc(C3=CCN(C(=N)N)CC3)cc2)nnc1-c1ccc(C2=CCN(C(=N)N)CC2)cc1,MIC,[2],0.39 µg/mL
same,MIC,Mucor circinelloides,0.2 µg/mL
same,MIC,Fusarium solani,0.024 µg/mL
same,MIC,Aspergillus fumigatus,0.1 µg/mL
same,MIC,Aspergillus flavus,0.1 µg/mL
same,MIC,[3],0.024 µg/mL
Cn1c(-c2ccc(C3=CCN(C(=N)N)CC3)cc2)cnc1-c1ccc(C2=CCN(C(=N)N)CC2)cc1,MIC,[2],6.25 µg/mL
same,MIC,Mucor circinelloides,0.78 µg/mL
same,MIC,Fusarium solani,3.13 µg/mL
same,MIC,Aspergillus fumigatus,0.2 µg/mL
same,MIC,Aspergillus flavus,0.39 µg/mL
same,MIC,[3],< 0.1 µg/mL
Cn1c(-c2ccc(C3=CCN(C(=N)N)C3)cc2)nnc1-c1ccc(C2=CCN(C(=N)N)C2)cc1,MIC,[2],6.25 µg/mL
same,MIC,Mucor circinelloides,0.78 µg/mL
same,MIC,Fusarium solani,0.2 µg/mL
same,MIC,Aspergillus fumigatus,0.2 µg/mL
same,MIC,Aspergillus flavus,0.39 µg/mL
same,MIC,[3],0.05 µg/mL
CCn1c(-c2ccc(C3=CCN(C(=N)N)CC3)cc2)nnc1-c1ccc(C2=CCN(C(=N)N)CC2)cc1,MIC,[2],0.78 µg/mL
same,MIC,Mucor circinelloides,0.2 µg/mL
same,MIC,Fusarium solani,< 0.012 µg/mL
same,MIC,Aspergillus fumigatus,< 0.012 µg/mL
same,MIC,Aspergillus flavus,< 0.012 µg/mL
same,MIC,[3],< 0.012 µg/mL
Cn1c(-c2ccc(C3CCN(C(=N)N)CC3)cc2)nnc1-c1ccc(C2CCN(C(=N)N)CC2)cc1,MIC,[2],> 100 µg/mL
same,MIC,Mucor circinelloides,> 100 µg/mL
same,MIC,Fusarium solani,0.78 µg/mL
same,MIC,Aspergillus fumigatus,1.56 µg/mL
same,MIC,Aspergillus flavus,1.56 µg/mL
same,MIC,[3],0.78 µg/mL
Cc1ccc(Oc2ccccc2-c2csc(N=C3NCCCN3)n2)c(C)c1 [ABAFUNGIN],MIC,Candida [1],0.5 µg/mL
same,MIC,Aspergillus; time 48 hrs,0.5 µg/mL
Cc1cc(-c2nnc(-c3ccc(C4=CCN(C(=N)N)CC4)cc3)o2)ccc1C1=CCN(C(=N)N)CC1,MIC,[2],25 µg/mL
same,MIC,Mucor circinelloides,25 µg/mL
same,MIC,Fusarium solani,1.56 µg/mL
same,MIC,Aspergillus fumigatus,> 25 µg/mL
same,MIC,Aspergillus flavus,6.25 µg/mL
same,MIC,[3],0.39 µg/mL
CC[C@@H]([C@H](C)O)n1ncn(-c2ccc(N3CCN(c4ccc(OC[C@@H]5CO[C@@](Cn6cncn6)(c6ccc(F)cc6F)C5)cc4)CC3)cc2)c1=O [POSACONAZOLE],MIC,[2],0.78 µg/mL
same,MIC,Mucor circinelloides,1.56 µg/mL
same,MIC,Fusarium solani,1.56 µg/mL
same,MIC,Aspergillus fumigatus,0.39 µg/mL
same,MIC,Aspergillus flavus,0.78 µg/mL
same,MIC,[3],0.78 µg/mL
Cn1c(-c2ccc(CNC(=N)N)cc2)cnc1-c1ccc(CNC(=N)N)cc1,MIC,[2],> 100 µg/mL
same,MIC,Mucor circinelloides,> 100 µg/mL
same,MIC,Fusarium solani,> 100 µg/mL
same,MIC,Aspergillus fumigatus,> 100 µg/mL
same,MIC,Aspergillus flavus,> 100 µg/mL
same,MIC,[3],> 100 µg/mL
COCCn1c(-c2ccc(C3=CCN(C(=N)N)CC3)cc2)nnc1-c1ccc(C2=CCN(C(=N)N)CC2)cc1,MIC,[2],1.56 µg/mL
same,MIC,Mucor circinelloides,0.39 µg/mL
same,MIC,Fusarium solani,0.05 µg/mL
same,MIC,Aspergillus fumigatus,0.1 µg/mL
same,MIC,Aspergillus flavus,0.2 µg/mL
same,MIC,[3],0.05 µg/mL
C[C@@H]1[C@H](O)[C@@H](C)/C=C/C=C/C=C/C=C/C=C/C=C/C=C/[C@H](O[C@@H]2O[C@H](C)[C@@H](O)[C@H](N)[C@@H]2O)C[C@@H]2O[C@](O)(C[C@@H](O)C[C@@H](O)[C@H](O)CC[C@@H](O)C[C@@H](O)CC(=O)O[C@H]1C)C[C@H](O)[C@H]2C(=O)O [AMPHOTERICIN B],MIC,[2],3.13 µg/mL
same,MIC,Mucor circinelloides,1.56 µg/mL
same,MIC,Fusarium solani,3.13 µg/mL
same,MIC,Aspergillus fumigatus,3.13 µg/mL
same,MIC,Aspergillus flavus,3.13 µg/mL
same,MIC,[3],3.13 µg/mL
Cn1c(-c2ccc(C3=CCN(C(=N)N)CC3)cc2)nnc1-c1ccc(C2=CCN(C(=N)N)CC2)c(C(F)(F)F)c1,MIC,[2],3.13 µg/mL
same,MIC,Mucor circinelloides,0.78 µg/mL
same,MIC,Fusarium solani,0.2 µg/mL
same,MIC,Aspergillus fumigatus,0.2 µg/mL
same,MIC,Aspergillus flavus,0.39 µg/mL
same,MIC,[3],0.2 µg/mL
CC(C)n1c(-c2ccc(C3=CCN(C(=N)N)CC3)cc2)nnc1-c1ccc(C2=CCN(C(=N)N)CC2)cc1,solubility,[5],27 µg/mL
same,solubility,[6],≤ 5000 µg/mL
same,inhibition at 10 µM,hERG (KCNH2),21.6%
same,inhibition at 10 µM,CYP3A,0%
same,inhibition at 10 µM,CYP2C19,10.3%
same,"fraction unbound at 4 h, 1 µM",[7],0.027
same,inhibition at 10 µM,CYP1A2,0%
same,half-life,[8],> 1 h
same,selectivity ratio,[9],> 1000
same,CC50 at 24 h,[10],297 µM
same,selectivity ratio,[11],> 1000
same,CC50 at 24 h,[12],751 µM
same,MIC50,Candida albicans,0.1 µg/mL
same,MIC,[2],0.78 µg/mL
same,MIC,Mucor circinelloides,0.2 µg/mL
same,MIC,Fusarium solani,< 0.1 µg/mL
same,MIC,Aspergillus fumigatus,< 0.1 µg/mL
same,MIC,Aspergillus flavus,< 0.1 µg/mL
same,MIC,[3],< 0.1 µg/mL
N=C(N)N1CC=C(c2ccc(-c3nnc(-c4ccc(C5=CCN(C(=N)N)CC5)cc4)n3Cc3ccccc3)cc2)CC1,MIC,[2],3.13 µg/mL
same,MIC,Mucor circinelloides,1.56 µg/mL
same,MIC,Fusarium solani,0.05 µg/mL
same,MIC,Aspergillus fumigatus,0.39 µg/mL
same,MIC,Aspergillus flavus,1.56 µg/mL
same,MIC,[3],0.1 µg/mL
